Laboratory results published in patent publication US20090030207A1, “Polymorphs of Dolasetron base and process for preparation thereof” (priority 2007, published 2009).

Columns and labels:
[1] = Hygroscopicity: water content after 1 week storage at defined relative humidity; format: physicochemical; details: for WATER CONTENT: 1 week, 25 ± 2° C.; for INITIAL water content: before storage
From the text: Hygroscopicity Table and Stability Measurements of Form G and J

[2] = format: physicochemical; details: for CRYSTAL FORM: 100% relative humidity, 1 week, 25 ± 2° C.
From the text: ARL X-ray powder diffractometer model X'TRA-030, Peltier detector, round standard aluminum sample holder with round zero background quartz plate was used. Scanning parameters: Range: 2-40 deg. 2θ, continuous Scan, Rate: 3 deg./min. The accuracy of peak positions is defined as +/−0.2 degrees due to experimental differences like instrumentations, sample preparations etc. Hygroscopicity Table and Stability Measurements of Form G and J

| SMILES | WATER CONTENT ([1]; 40% relative humidity) | WATER CONTENT ([1]; 60% relative humidity) | WATER CONTENT ([1]; 80% relative humidity) | WATER CONTENT ([1]; 100% relative humidity) | INITIAL water content [1] | crystalline stability (conversion to another polymorph upon storage) [2] | CRYSTAL FORM [2] |
| --- | --- | --- | --- | --- | --- | --- | --- |
| O=C(O[C@@H]1C[C@@H]2C[C@H]3C[C@H](C1)N2CC3=O)c1c[nH]c2ccccc12 [Form G, Dolasetron base] | <0.1% | <0.1% | <0.1% | 4.1% | INITIAL water content: 0.1% | stable polymorphic form | B >> G |
| O=C(O[C@@H]1C[C@@H]2C[C@H]3C[C@H](C1)N2CC3=O)c1c[nH]c2ccccc12 [Form J, Dolasetron base] | <0.1% | <0.1% | 0.2% | 5.5% | INITIAL water content: <0.1% | stable polymorphic form | B >> J |
